Measurements as given in patent US8163509B2, “Biological markers predictive of anti-cancer response to insulin-like growth factor-1 receptor kinase inhibitors” (The Regents of the University of Colorado, A Body Corporate, priority 2008, dated 2012).
Read-outs that look alike come from different tables or passages of the source.

Experiments:
Assay in all cases: SRB proliferation assay, 72 h
Assay type in all cases: cell-based, human
HCT116 CRC cell line = settings: for IC50: Homo sapiens, HCT-116
Procedure: (§1) Cell proliferation was evaluated by SRB following exposure to OSI-906 for 72 hours. Cells were plated at an optimized density in 96-well plates, incubated overnight at 37° C., and then exposed to a serial dilution of OSI-906. After 72 hours incubation, cells were fixed with trichloroacetic acid and an SRB was performed as described in materials and methods.
(§2) Cell Lines and Culture. […] human colon cancer cell lines, were obtained from American Type Culture Collection (Manassas, Va.). Cells were grown in RPMI medium supplemented with 10% fetal bovine serum, 1% non-essential amino acids, 1% penicillin/streptomycin and were maintained at 37° C. in an incubator under an atmosphere containing 5% CO2. The cells were routinely screened for the presence of mycoplasma (MycoAlert, Cambrex Bio Science, Baltimore, Md.) and were exposed to PQIP when they reached approximately 70% confluence.
(§3) Multiple clones from the same transfection were pooled and grown under puromycin selection.
(§4) Cytotoxicity and Combination Effects: HT29, HCT116, RKO, and LS513 CRC cell lines were exposed to 0-10 nM SN-38 (7-Ethyl-10-hydroxy-camptothecin), 0-10 μM Oxaliplatin, or 0-50 μM 5-Fluorouracil (5-FU) for 72 hours. HT29, HCT116, RKO, and LS513 CRC cell lines were exposed to PQIP in combination with SN-38, Oxaliplatin or 5-FU. In all combinations, cells were seeded in 96-well flat bottomed plates and left overnight. PQIP and chemotherapy were both added for 72 hours. The results of the combinations were analyzed by the Chou and Talalay method with Calcusyn (Biosoft, Ferguson, Mo.).
(§5) The CRC cell lines were treated with a range of concentrations of PQIP (from 0.05-5 μM) for 72 hours.
(§6) To characterize the potential functionality that the selected genes may play in the sensitivity or resistance to PQIP, resistant and sensitive CRC cell lines were stably transfected with specific shRNA, treated with increasing concentrations of PQIP and proliferation assays performed to observe, if when manipulated, these genes alter responsiveness (i.e. the S or R phenotype). […] Both of these transfected cell lines were assayed for proliferation as described above.
Therefore, we investigated the effect of PQIP in combination with standard chemotherapy for CRC. […] Cells were exposed to PQIP and chemotherapy (SN38, oxaliplatin, or 5-Fluorouracil) concurrently for 72 h and combinations were assessed using the SRB assay.
Cell Lines and Culture: Twenty-seven human colon cancer cell lines, were obtained from American Type Culture Collection (Manassas, Va.). The GEO cells were a generous gift from Dr. Fortunato Ciardiello (Cattedra di Oncologia Medica, Dipartimento Medico-Chirurgico di Internistica Clinica e Sperimentale “F Magrassi e A Lanzara,” Seconda Università degli Studi di Napoli, Naples). All cells except GEO were grown in RPMI medium supplemented with 10% fetal bovine serum, 1% non-essential amino acids, 1% penicillin/streptomycin and were maintained at 37° C. in an incubator under an atmosphere containing 5% CO2.

SW480 CRC cell line = settings: for IC50: Homo sapiens, SW480
Procedure: as §1, §2, §3, §5, §6
Cell Lines and Culture: Twenty-seven human colon cancer cell lines, were obtained from American Type Culture Collection (Manassas, Va.). The GEO cells were a generous gift from Dr. Fortunato Ciardiello (Cattedra di Oncologia Medica, Dipartimento Medico-Chirurgico di Internistica Clinica e Sperimentale “F Magrassi e A Lanzara,” Seconda Università degli Studi di Napoli, Naples). All cells except GEO were grown in RPMI medium supplemented with 10% fetal bovine serum, 1% non-essential amino acids, 1% penicillin/streptomycin and were maintained at 37° C. in an incubator under an atmosphere containing 5% CO2. GEO cells were grown in DMEM/F12 supplemented with 10% fetal bovine serum, 1% non-essential amino acids, 1% penicillin/streptomycin. The cells were routinely screened for the presence of mycoplasma (MycoAlert, Cambrex Bio Science, Baltimore, Md.) and were exposed to OSI-906 when they reached approximately 70% confluence. OSI-906 was provided by OSI Pharmaceuticals, (Boulder, Colo.) and prepared as a 10 mM stock solution in DMSO.
as §3

HT29 CRC cell line = system: HT29 CRC cell line
Procedure: as §1, with “FIG. 17: Results of cell proliferation assay on the panel of 27 CRC cell lines. Cell proliferation” for “Cell proliferation”
as §2, §4, §5
as §6, with “phenotype). Two resistant cell lines HCT116 and SW480 were transfected with metallothionein 2A (MT-2A) shRNA and were exposed to increasing concentrations of PQIP.” for “phenotype).”, “above. […] HT29 tumor cells were transfected with shRNA for ALDH1A1, which is up regulated in the PQIP sensitive cell lines.” for “above.”
Combination treatment of PQIP with Chemotherapy in Colon Cancer Cell Lines: IGF1R is overexpressed in CRC and has been associated with resistance to chemotherapy. Therefore, we investigated the effect of PQIP in combination with standard chemotherapy for CRC. Four CRC cell lines including, two PQIP sensitive and two PQIP resistant, were chosen for combinations. HT29 and LS513 CRC cell lines were classified as sensitive, with IC50's around 0.3 μmol/L. HCT116 and RKO CRC cell lines were classified as resistant, with IC50>5 μmol/L. Concentrations were chosen based on single agent proliferation curves for each compound. Cells were exposed to PQIP and chemotherapy (SN38, oxaliplatin, or 5-Fluorouracil) concurrently for 72 h and combinations were assessed using the SRB assay. […] It thus appears that biomarkers which predict tumor cell sensitivity will also indicate which cells will respond in a synergistic manner to an IGF-1R kinase inhibitor (e.g. PQIP) and chemotherapy (i.e. SN38, oxaliplatin, or 5-Fluorouracil).
Cell Lines and Culture: Twenty-seven human colon cancer cell lines, were obtained from American Type Culture Collection (Manassas, Va.). The GEO cells were a generous gift from Dr. Fortunato Ciardiello (Cattedra di Oncologia Medica, Dipartimento Medico-Chirurgico di Internistica Clinica e Sperimentale “F Magrassi e A Lanzara,” Seconda Università degli Studi di Napoli, Naples). […]

| SMILES | IC50 (HCT116 CRC cell line; HCT116, 72 hours, read-out: IC50, proliferation, OSI-906 (SRB)) | IC50 (HCT116 CRC cell line; HCT116, read-out: S/I/R to OSI-906) | IC50 (HCT116 CRC cell line; HCT116 stably transfected with MT2A shRNA, read-out: IC50, proliferation, OSI-906 (SRB) after MT2A shRNA knockdown) | IC50 (SW480 CRC cell line; read-out: S/I/R to OSI-906) | IC50 (SW480 CRC cell line; 72 hours, read-out: IC50, proliferation, OSI-906 (SRB)) | shift in sensitivity to OSI-906 after MT2A shRNA knockdown (SW480 CRC cell line; SW480 stably transfected with MT2A shRNA) | IC50 (HT29 CRC cell line; Homo sapiens, HT-29, 72 h, HT29, 72 hours, read-out: IC50, proliferation, OSI-906 (SRB)) | IC50 (HT29 CRC cell line; Homo sapiens, HT-29, HT29, read-out: S/I/R to OSI-906) | combination index (CI) values, PQIP and chemotherapy (HCT116 CRC cell line; HCT116, PQIP with SN38, oxaliplatin or 5-Fluorouracil concurrently 72 h, nearly all combinations, Chou and Talalay) | shift in sensitivity to PQIP after shRNA knockdown (HCT116 CRC cell line; HCT116 transfected with MT2A shRNA vs parental or scramble shRNA control) | shift in sensitivity to PQIP after shRNA knockdown (HCT116 CRC cell line; HCT116 transfected with caldesmon shRNA vs parental or scramble shRNA control) | IC50 (HCT116 CRC cell line; HCT116, 72 hours, 0.05-5 μM, read-out: IC50, growth inhibition by PQIP (SRB)) | IC50 (SW480 CRC cell line; 72 hours, 0.05-5 μM, read-out: IC50, growth inhibition by PQIP (SRB)) | shift in sensitivity to PQIP after shRNA knockdown (SW480 CRC cell line; SW480 transfected with MT2A shRNA vs parental or scramble shRNA control) | shift in sensitivity to PQIP after shRNA knockdown (SW480 CRC cell line; SW480 transfected with caldesmon shRNA vs parental or scramble shRNA control) | IC50 (HT29 CRC cell line; HT29, 72 hours, 0.05-5 μM, read-out: IC50, growth inhibition by PQIP (SRB)) | combination index (CI) values, PQIP and chemotherapy (HT29 CRC cell line; HT29, PQIP with SN38, oxaliplatin or 5-Fluorouracil concurrently 72 h, nearly all CI values, Chou and Talalay) | shift in sensitivity to PQIP after shRNA knockdown (HT29 CRC cell line; HT29 with ALDH1A1 shRNA knockdown) | IC50 (HT29 CRC cell line; Homo sapiens, HT-29, 72 h, HT29, 72 hours, 0.05-5 μM, read-out: IC50, growth inhibition by PQIP (SRB)) |
| --- | --- | --- | --- | --- | --- | --- | --- | --- | --- | --- | --- | --- | --- | --- | --- | --- | --- | --- | --- |
| C[C@]1(O)C[C@@H](c2nc(-c3ccc4ccc(-c5ccccc5)nc4c3)c3c(N)nccn32)C1 [OSI-906, cis-3-[8-amino-1-(2-phenyl-quinolin-7-yl)-imidazo[1,5-a]pyrazin-3-yl]-1-methyl-cyclobutanol] | > 5 µM | > 5 µM | 5 µM | > 5 µM | > 5 µM | did not exhibit the same “left shift” | ≤ 1.5 µM | ≤ 1.5 µM |  |  |  |  |  |  |  |  |  |  |  |
| CN1CCN([C@H]2C[C@@H](c3nc(-c4ccc5ccc(-c6ccccc6)nc5c4)c4c(N)nccn43)C2)CC1 [PQIP, cis-3-[3-(4-Methyl-piperazin-1-yl)-cyclobutyl]1-(2-phenyl-quinolin-7-yl)-imidazo[1,5-a]pyrazin-8-ylamine] |  |  |  |  |  |  |  |  | 0.6-1.4 | left shift in sensitivity | no left shift in sensitivity | > 5 µM | > 5 µM | very modest if any left shift in sensitivity | no left shift in sensitivity | ~0.3 µM | 0.2-1.0 | no left shift in sensitivity | < 0.5 µM |
